Data on nine compounds can be found in ChEMBL document CHEMBL1201862, “PubChem BioAssay data set” (2004).

Some test systems named below: ACHN; HCT-116; HCT-15; HOP-62; HOP-92; IGROV-1; Malme-3M; NCI-H460; OVCAR-3; SF-539; SK-MEL-2; SK-MEL-5; SK-OV-3; SNB-19; DU-145; MCF7; NCI/ADR-RES; PC-3; MDA-MB-231.
Holding throughout (experiment): growth of human tumour cells (NCI), 48 h

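Exposure lasted 48 hours, with cells grown in 96-well plates and compounds tested at five concentrations. At the GI50, growth is halved.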 Calls of active or inactive are those of the source. Cut-off read from the data, not from the text of the source: active = GI50 up to about 1.1 µM and inactive = higher. Where a SMILES comes first, the peptide text is derived from it. The star is where a group is joined. Boc = CC(C)(C)OC(=O)*

As for `COc1ccc2ccccc2c1C1=NC(C)(C)CO1`, the GI50 in the assay on ACHN was > 100 µM (inactive); in the assay on HCT-116, > 100 µM (inactive); in the assay with HCT-15, over 100 µM; with HOP-62 it was > 100 µM (inactive); in the assay with HOP-92, 98.9 µM (inactive); in the assay with IGROV-1 it was > 100 µM (inactive). Also, the GI50 in the assay with Malme-3M, in the assay with NCI-H460, in the assay with OVCAR-3, in the assay on SF-539, in the assay on SK-MEL-2 and in the assay with SK-MEL-5 was > 100 µM (inactive) each time. In addition, the GI50 in the assay on SK-OV-3 and with SNB-19 was > 100 µM (inactive) in each case.

As to `CCOC(=O)Cc1ccc(Nc2nc3cc(C(F)(F)F)ccc3nc2C(=O)OCC)cc1`, the GI50 is 33 µM (inactive) in the assay on ACHN; > 100 µM (inactive) in the assay on DU-145; 81.8 µM (inactive) in the assay on HCT-116; over 100 µM in the assay on HCT-15; 35 µM (inactive) with HOP-62; 38.8 µM (inactive) in the assay with HOP-92. Further, the GI50 in the assay with IGROV-1 is > 100 µM (inactive); with MCF7 it was 94.4 µM (inactive); in the assay with Malme-3M, > 100 µM (inactive); in the assay with NCI-H460 it was > 100 µM (inactive); with NCI/ADR-RES it was > 100 µM (inactive); in the assay with OVCAR-3, > 100 µM (inactive). In addition, the GI50 was > 100 µM (inactive) with PC-3; 14.7 µM (inactive) with SF-539; 61.1 µM (inactive) with SK-MEL-2; > 100 µM (inactive) with SK-MEL-5; 51.4 µM (inactive) with SK-OV-3; 27.5 µM (inactive) in the assay with SNB-19.

With `Cc1nn(C(=O)c2ccccc2O)c2c1C(c1ccco1)SC(=N)N2` (stereo not given), the GI50 in the assay with ACHN is 3.42 µM (inactive); in the assay with DU-145 it was 3.63 µM (inactive); in the assay with HCT-116, 3.34 µM (inactive); in the assay with HCT-15, 3.53 µM; in the assay on HOP-62, 2.58 µM (inactive); in the assay on HOP-92, 4.59 µM (inactive). The GI50 is 4.42 µM (inactive) in the assay with IGROV-1; 5.79 µM (inactive) with MDA-MB-231; > 10 µM (inactive) with Malme-3M; 4.32 µM (inactive) in the assay on NCI-H460; 3.22 µM (inactive) with NCI/ADR-RES; 3.32 µM (inactive) in the assay with OVCAR-3. Moreover, the GI50 in the assay with PC-3 was 3.73 µM (inactive); in the assay with SF-539 it was 4.28 µM (inactive); in the assay with SK-MEL-2 it was > 10 µM (inactive); in the assay with SK-OV-3, 3.3 µM (inactive); in the assay on SNB-19, > 10 µM (inactive).

Regarding `CC1=NN(C(=O)c2ccc(Cl)cc2)C(=O)/C1=C/c1ccccc1O`, the GI50 with ACHN was > 100 µM (inactive); in the assay with HCT-116, > 100 µM (inactive); in the assay with HCT-15 it was over 100 µM; with HOP-62, > 100 µM (inactive); in the assay on HOP-92, > 100 µM (inactive); with IGROV-1, > 100 µM (inactive). For the same compound, the GI50 with Malme-3M, in the assay with NCI-H460, with OVCAR-3, in the assay with SF-539, in the assay with SK-MEL-2 and with SK-MEL-5 was > 100 µM (inactive) throughout. Further, the GI50 in the assay on SK-OV-3 and with SNB-19 was > 100 µM (inactive) in each case.

For `CCOC(=O)C(CC(C)C)NC(=O)C(Cc1ccccc1)NC(=O)CNC(=O)OC(C)(C)C` (stereo not drawn) (Boc-Gly-Phe-Leu-OEt; configuration not given here), the GI50 with ACHN is 17.1 µM (inactive); with DU-145 it was 21.3 µM (inactive); with HCT-116, 17.9 µM (inactive); in the assay with HCT-15, 18.4 µM; in the assay on HOP-62, 28.2 µM (inactive); in the assay with HOP-92, 25.2 µM (inactive). In addition, the GI50 was 21.6 µM (inactive) in the assay on IGROV-1; 2.44 µM (inactive) in the assay on MCF7; 19.9 µM (inactive) in the assay with Malme-3M; 12.1 µM (inactive) in the assay on NCI-H460; 80.2 µM (inactive) in the assay with NCI/ADR-RES; 17.2 µM (inactive) in the assay on OVCAR-3. For the same compound, the GI50 in the assay with PC-3 is 20 µM (inactive); in the assay with SF-539 it was 13.5 µM (inactive); with SK-MEL-2, 28.9 µM (inactive); with SK-MEL-5 it was 20.8 µM (inactive); with SK-OV-3, 20.8 µM (inactive); in the assay with SNB-19, 31.6 µM (inactive).

Take `CCOC(=O)c1[nH]cc(C)c1-c1ccn(-c2ccccc2)c1`: the GI50 is 50.2 µM (inactive) in the assay on ACHN; > 100 µM (inactive) in the assay on DU-145; 42.7 µM (inactive) with HCT-116; 54.5 µM with HCT-15; > 100 µM (inactive) with HOP-62; 21.5 µM (inactive) with HOP-92. For the same compound, the GI50 in the assay with IGROV-1 is 14.9 µM (inactive); with MCF7 it was 61 µM (inactive); in the assay on NCI-H460 it was 38.6 µM (inactive); in the assay on NCI/ADR-RES it was 36.2 µM (inactive); with OVCAR-3 it was 19.6 µM (inactive); in the assay with PC-3 it was 30.6 µM (inactive). Besides, the GI50 in the assay with SF-539 is > 100 µM (inactive); in the assay on SK-MEL-2, 61.5 µM (inactive); in the assay with SK-MEL-5, 21.7 µM (inactive); in the assay on SK-OV-3, > 100 µM (inactive).

As for `Cc1oc(N)c(S(=O)(=O)c2ccc(Cl)cc2)c1C`, the GI50 in the assay on ACHN is 37 µM (inactive); in the assay on DU-145 it was > 100 µM (inactive); in the assay with HCT-116, 39.4 µM (inactive); in the assay on HCT-15, 34 µM; in the assay with HOP-92, > 100 µM (inactive); in the assay on IGROV-1, 85.5 µM (inactive). Moreover, the GI50 was 50.4 µM (inactive) with MCF7; 29.9 µM (inactive) in the assay with Malme-3M; 22.2 µM (inactive) in the assay on NCI-H460; 34.9 µM (inactive) in the assay on NCI/ADR-RES; 29.1 µM (inactive) in the assay with OVCAR-3; 23.7 µM (inactive) in the assay with PC-3. The GI50 was 25.8 µM (inactive) in the assay with SF-539; 28 µM (inactive) with SK-MEL-2; 44.7 µM (inactive) in the assay on SK-MEL-5; 42.6 µM (inactive) with SK-OV-3; > 100 µM (inactive) in the assay with SNB-19.

With `CC(=O)C(CN(Cc1ccccc1)Cc1ccccc1)C(c1ccccc1)c1c(O)c2ccccc2oc1=O` (stereo not given), the GI50 with ACHN was > 100 µM (inactive); with HCT-116 it was > 100 µM (inactive); in the assay on HCT-15, over 100 µM; in the assay on HOP-62, > 100 µM (inactive); in the assay with HOP-92, 18.9 µM (inactive); with IGROV-1, > 100 µM (inactive). Moreover, the GI50 in the assay with Malme-3M, in the assay on NCI-H460, in the assay with OVCAR-3, in the assay with SF-539, in the assay with SK-MEL-2 and in the assay on SK-MEL-5 was > 100 µM (inactive) throughout. Moreover, the GI50 in the assay with SK-OV-3 and in the assay with SNB-19 was > 100 µM (inactive) throughout.

As for `CCN(CC)c1ccc2cc(C(=O)Nc3ccccc3OC)c(=N)oc2c1`, the GI50 is 11.3 µM (inactive) in the assay with ACHN; 28.2 µM (inactive) in the assay on DU-145; 15.4 µM (inactive) with HCT-116; 19.7 µM in the assay with HCT-15; 12 µM (inactive) in the assay with HOP-62; 7.55 µM (inactive) in the assay on IGROV-1. For the same compound, the GI50 with MCF7 is 16.3 µM (inactive); in the assay with Malme-3M, 32.3 µM (inactive); with NCI-H460 it was 5.16 µM (inactive); with NCI/ADR-RES, 23.7 µM (inactive); with OVCAR-3, 43.2 µM (inactive); in the assay with PC-3 it was 11.8 µM (inactive). Also, the GI50 with SF-539 was 46.6 µM (inactive); with SK-MEL-2 it was 59.7 µM (inactive); with SK-MEL-5 it was 32.1 µM (inactive); with SK-OV-3, 72.3 µM (inactive); in the assay with SNB-19, 16.1 µM (inactive).
